Read-outs that look alike come from different tables or passages of the source.
Key:
Assay in all cases: Test C pre-/postemergence greenhouse herbicide test
Type in all cases: in vivo
[1] = tested on: barnyardgrass (Echinochloa crus-galli); details: Barnyardgrass
How it was run: (§1)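 Greenhouse pre- and postemergence screen: compounds in a non-phytotoxic solvent mix plus surfactant were applied to soil/sand-sown seeds or to 1- to 4-leaf plants. Visual rating 13–15 d later, 0 (no effect) to 100 (complete control).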

[2] = tested on: corn (Zea mays); details: Zea mays, Corn, read-out: Plant response rating; for plant injury at 31 g/ha: 31 g ai/ha; for plant injury at 62 g/ha: 62 g ai/ha; for plant injury at 125 g/ha: 125 g ai/ha; for plant injury at 250 g/ha: 250 g ai/ha
How it was run: as §1

[3] = tested on: crabgrass, Large (large crabgrass, Digitaria sanguinalis); details: Digitaria sanguinalis, Crabgrass, Large, read-out: Plant response rating; for pest or weed control at 31 g/ha: 31 g ai/ha; for pest or weed control at 62 g/ha: 62 g ai/ha; for pest or weed control at 125 g/ha: 125 g ai/ha; for pest or weed control at 250 g/ha: 250 g ai/ha
How it was run: as §1

[4] = tested on: foxtail, giant (giant foxtail, Setaria faberii); details: Setaria faberi, Foxtail, Giant, read-out: Plant response rating; for pest or weed control at 31 g/ha: 31 g ai/ha; for pest or weed control at 62 g/ha: 62 g ai/ha; for pest or weed control at 125 g/ha: 125 g ai/ha; for pest or weed control at 250 g/ha: 250 g ai/ha
How it was run: as §1

[5] = tested on: galium (catchweed bedstraw, Galium aparine); details: Galium, read-out: Plant response rating; for pest or weed control at 31 g/ha: 31 g ai/ha; for pest or weed control at 62 g/ha: 62 g ai/ha; for pest or weed control at 125 g/ha: 125 g ai/ha; for pest or weed control at 250 g/ha: 250 g ai/ha
How it was run: as §1

[6] = tested on: kochia (Kochia scoparia); details: Postemergence
How it was run: as §1

[7] = tested on: lambsquarters (Chenopodium album); details: Postemergence
How it was run: as §1

COc1cc(=O)n(-c2ccc(C(F)(F)F)cc2)nc1Cc1ccnc(C(F)(F)F)c1 [Compound 16, 5-methoxy-2-[4-(trifluoromethyl)phenyl]-6-[[2-(trifluoromethyl)-4-pyridinyl]methyl]-3(2H)-pyridazinone]
Plant response rating ([1]; Postemergence, 31 g ai/ha): 10
Plant response rating ([1]; Postemergence, 62 g ai/ha): 10
Plant response rating ([1]; Postemergence, 125 g ai/ha): 25
Plant response rating ([1]; Postemergence, 250 g ai/ha): 35
Plant response rating ([1]; Preemergence, 31 g ai/ha): 75
Plant response rating ([1]; Preemergence, 62 g ai/ha): 80
Plant response rating ([1]; Preemergence, 125 g ai/ha): 95
Plant response rating ([1]; Preemergence, 250 g ai/ha): 100
plant injury at 31 g/ha ([2]; post-emergence, Postemergence): 20%
plant injury at 62 g/ha ([2]; post-emergence, Postemergence): 40%
plant injury at 125 g/ha ([2]; post-emergence, Postemergence): 40%
plant injury at 250 g/ha ([2]; post-emergence, Postemergence): 55%
plant injury at 31 g/ha ([2]; pre-emergence, Preemergence): 45%
plant injury at 62 g/ha ([2]; pre-emergence, Preemergence): 60%
plant injury at 125 g/ha ([2]; pre-emergence, Preemergence): 75%
plant injury at 250 g/ha ([2]; pre-emergence, Preemergence): 75%
pest or weed control at 31 g/ha ([3]; post-emergence, Postemergence): 10%
pest or weed control at 62 g/ha ([3]; post-emergence, Postemergence): 25%
pest or weed control at 125 g/ha ([3]; post-emergence, Postemergence): 30%
pest or weed control at 250 g/ha ([3]; post-emergence, Postemergence): 35%
pest or weed control at 31 g/ha ([3]; pre-emergence, Preemergence): 98%
pest or weed control at 62 g/ha ([3]; pre-emergence, Preemergence): 98%
pest or weed control at 125 g/ha ([3]; pre-emergence, Preemergence): 100%
pest or weed control at 250 g/ha ([3]; pre-emergence, Preemergence): 100%
pest or weed control at 31 g/ha ([4]; post-emergence, Postemergence): 15%
pest or weed control at 62 g/ha ([4]; post-emergence, Postemergence): 15%
pest or weed control at 125 g/ha ([4]; post-emergence, Postemergence): 30%
pest or weed control at 250 g/ha ([4]; post-emergence, Postemergence): 55%
pest or weed control at 31 g/ha ([4]; pre-emergence, Preemergence): 98%
pest or weed control at 62 g/ha ([4]; pre-emergence, Preemergence): 98%
pest or weed control at 125 g/ha ([4]; pre-emergence, Preemergence): 100%
pest or weed control at 250 g/ha ([4]; pre-emergence, Preemergence): 100%
pest or weed control at 31 g/ha ([5]; post-emergence, Postemergence): 80%
pest or weed control at 62 g/ha ([5]; post-emergence, Postemergence): 80%
pest or weed control at 125 g/ha ([5]; post-emergence, Postemergence): 90%
pest or weed control at 250 g/ha ([5]; post-emergence, Postemergence): 90%
pest or weed control at 31 g/ha ([5]; pre-emergence, Preemergence): 70%
pest or weed control at 62 g/ha ([5]; pre-emergence, Preemergence): 98%
pest or weed control at 125 g/ha ([5]; pre-emergence, Preemergence): 100%
pest or weed control at 250 g/ha ([5]; pre-emergence, Preemergence): 100%
Plant response rating ([6]; 31 g ai/ha): 90
Plant response rating ([6]; 62 g ai/ha): 90
Plant response rating ([6]; 125 g ai/ha): 90
Plant response rating ([6]; 250 g ai/ha): 90
Plant response rating ([7]; 31 g ai/ha): 70
Plant response rating ([7]; 62 g ai/ha): 95
Plant response rating ([7]; 125 g ai/ha): 95

Source: patent publication US10202361B2, “Pyridazinones as herbicides” (E I DU PONT DE NEMOURS AND COMPANY, priority 2014, dated 2019)
